Results on two compounds are retold here after patent publication US9670261B2 (Sanofi, priority 2012, dated 2017).

*1 amine or outer side, *2 acyl side, *3 side chain or, on linkers, in order; H or OH if unused. Where a SMILES comes first, the peptide text is derived from it. Side-chain parts run from the residue outwards. [ ]: non-standard residue; d: D form. The star is where a group is joined. γGlu = O=C(O)[C@H](CCC(=O)[*:2])N[*:1]; Stearoyl = CCCCCCCCCCCCCCCCCC(=O)*; Aib = CC(C)(N)C(=O)O Some results are limits rather than exact numbers.

Data set [1] in a line: Solubility testing in buffer (HPLC-UV). The conditions noted are these: buffer.
A short description of data set [2]: Pharmacokinetic testing in mice, s.c. The conditions noted are these: mouse, plasma, sc, 1 mg/kg.
Procedure: Mice were dosed 1 mg/kg subcutaneously (s.c.). The mice were sacrified and blood samples were collected after 0.25, 0.5, 1, 2, 4, 8, 16 and 24 hours post application. Plasma samples were analyzed after protein precipitation via liquid chromatography mass spectrometry (LC/MS). PK parameters and half-life were calculated using WinonLin Version 5.2.1 (non-compartment model).
Data set [3] has as its system non-fasted female diabetic dbdb-mice. The experiment in a line: Glucose lowering in non-fasted female diabetic dbdb-mice. The format is in vivo. Conditions: 3 μg/kg s.c., at 240 min; baseline 20-22 mmol/l. The text has this: Female diabetic dbdb-mice of mean non-fasted glucose value of 20-22 mmol/l and a body weight of 42 g+/−0.6 g (SEM) were used. Mice were individually marked and were adapted to housing conditions for at least one week.
3-5 days prior to study start mice were assigned to groups and cages (4 mice per cage, 8 per group) according to their non-fasted glucose values to ensure even distribution of lower and higher values between groups (stratification). On the study day, mice were weighed and dosed (t=0). Immediately prior to compound administration feed was removed while water remained available, and a first blood sample at a tail incision was drawn (baseline). Further blood samples were drawn at the tail incision at 30, 60, 90, 120, 240, 360, and 480 min.
Statistical analyses are performed with Everstat Version 6.0 based on SAS by 2-way-ANOVA on repeated measures, followed by Dunnett's post-hoc test against vehicle-control. Differences are considered statistically significant at the p<0.05 level.
Female dbdb-mice, received 3 μg/kg of SEQ ID NO: 14, SEQ ID NO: 21 or phosphate buffered saline (vehicle control) subcutaneously, at time 0 min.

The next data set has as its target T1, human GLP-1 receptor (Homo sapiens, UniProt P43220).
T1 construct: expressed in transfected cells
The experiment in a line: cAMP response (HTRF) of HEK-293 cells stably expressing human GLP-1 receptor. The format is cell-based. Conditions: Table 7; cAMP formation; read-out: EC50 hGLP-1 R. Summed up: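 Intracellular cAMP is quantified by HTRF following a 30-minute room-temperature incubation of cell suspensions (400000 cells/ml) with test compound in HBSS, 20 mM HEPES, 0.1% BSA and 2 mM IBMX.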
In general terms: In TR-FRET formats the signal depends on donor and acceptor labels being close together.

Data set [4] is described as follows: Chemical stability in solution, 7 days at 25° C. (% remaining peptide). The conditions noted are these: % remaining peptide after 7 days at 25° C.
Procedure: After that time course, the sample was centrifuged for 20 min at 4000 rpm and the supernatant was analysed with HPLC-UV. For determination of the amount of the remaining peptide, the peak areas of the target compound at t0 and t7 were compared, resulting in “% remaining peptide”, following the equation % remaining peptide=[(peak area peptide t7)×100]/peak area peptide t0.
The chemical stability is expressed as “% remaining peptide”.
The test system of data set [5] is female diabetic dbdb-mice. The data set is described as follows: Glucose, HbA1c and oral glucose tolerance in diabetic dbdb-mice, chronic treatment (method 4). The format is in vivo. The protocol:
8 week old, female diabetic dbdb-mice of mean non-fasted glucose value of 14.5 mmol/l and a body weight of 37-40 g were used. Mice were individually marked and were adapted to housing conditions for at least one week.
7 days prior to study start, baseline values for non-fasted glucose and HbA1c were determined, 5 days prior to study start, mice were assigned to groups and cages (5 mice per cage, 10 per group) according to their HbA1c values to ensure even distribution of lower and higher values between groups (stratification).
Mice were treated for 4 weeks, by once daily subcutaneous administration 3 hours prior to the dark phase (6 pm to 6 am). Blood samples from a tail tip incision were obtained for HbA1c on study day 21 and oral glucose tolerance was assessed in the 4th week. Oral glucose tolerance test was done in the morning without prior extra compound administration to majorly assess the effect of chronic treatment and less of acute compound administration. Mice were fasted for 4 hours prior to oral glucose administration (2 g/kg, t=0 min). Blood samples were drawn prior to glucose administration and at 15, 30, 60, 90, 120, and 180 min thereafter. Feed was returned after the last blood sampling. Results are represented as change from baseline, glucose in mmol/l and HbA1c in %.
Statistical analyses are performed with Everstat Version 6.0 based on SAS by 1-way-ANOVA, followed by Dunnett's post-hoc test against vehicle-control. Differences are considered statistically significant at the p<0.05 level.
Female dbdb-mice, received 3 and 10 μg/kg of SEQ ID NO: 16 and 10 μg/kg of SEQ ID NO: 21 or phosphate buffered saline (vehicle control) once daily, subcutaneously over four weeks.

T1 sequence (P43220 24-463): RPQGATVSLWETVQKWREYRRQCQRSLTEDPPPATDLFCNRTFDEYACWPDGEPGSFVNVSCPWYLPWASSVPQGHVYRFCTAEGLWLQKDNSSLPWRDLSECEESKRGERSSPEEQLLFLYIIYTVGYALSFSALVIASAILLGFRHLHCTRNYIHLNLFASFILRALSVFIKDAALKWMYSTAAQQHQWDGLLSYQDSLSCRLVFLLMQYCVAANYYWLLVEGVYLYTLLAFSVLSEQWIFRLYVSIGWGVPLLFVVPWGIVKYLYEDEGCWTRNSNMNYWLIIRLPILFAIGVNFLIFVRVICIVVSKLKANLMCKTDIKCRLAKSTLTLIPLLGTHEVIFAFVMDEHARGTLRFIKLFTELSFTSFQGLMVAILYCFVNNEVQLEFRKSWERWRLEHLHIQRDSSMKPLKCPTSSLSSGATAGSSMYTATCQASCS

`CCCCCCCCCCCCCCCCCC(=O)N[C@@H](CCC(=O)NCCCC[C@H](NC(=O)[C@H](CCC(N)=O)NC(=O)[C@@H](NC(=O)[C@H](CO)NC(=O)[C@H](CC(C)C)NC(=O)[C@H](CC(=O)O)NC(=O)[C@H](CO)NC(=O)[C@@H](NC(=O)[C@H](Cc1ccccc1)NC(=O)[C@@H](NC(=O)CNC(=O)[C@H](CCC(=O)O)NC(=O)C(C)(C)NC(=O)[C@@H](N)Cc1ccc(O)cc1)[C@@H](C)O)[C@@H](C)O)[C@@H](C)CC)C(=O)N[C@@H](CCC(=O)O)C(=O)N[C@@H](CCCCN)C(=O)N[C@@H](CCCNC(=N)N)C(=O)N[C@@H](C)C(=O)N[C@@H](C)C(=O)N[C@@H](CCC(N)=O)C(=O)N[C@@H](CCC(=O)O)C(=O)N[C@@H](Cc1ccccc1)C(=O)N[C@H](C(=O)N[C@@H](CCC(=O)O)C(=O)N[C@@H](Cc1c[nH]c2ccccc12)C(=O)N[C@@H](CC(C)C)C(=O)N[C@@H](CCCCN)C(=O)N[C@@H](C)C(=O)NCC(=O)NCC(=O)N1CCC[C@H]1C(=O)N[C@@H](CO)C(=O)N[C@@H](CO)C(=O)NCC(=O)N[C@@H](C)C(=O)N1CCC[C@H]1C(=O)N1CCC[C@H]1C(=O)N1CCC[C@H]1C(=O)N[C@@H](CO)C(N)=O)[C@@H](C)CC)C(=O)O` [SEQ ID NO: 14, Y-Aib-E-G-T-F-T-S-D-L-S-I-Q-K(γE-x70)-EKRAAQEFIEWLKAGGPSSGAPPPS-NH2] (H-Y[Aib]EGTFTSDLSIQK([γGlu-Stearoyl])EKRAAQEFIEWLKAGGPSSGAPPPS-NH2): the solubility (as a rule, the concentration that dissolves in the medium under given conditions) at 2 h in data set [1] (pH 4.5) was greater than 1 mg/mL. For the same compound, the solubility at 2 h in data set [1] (pH 7.4) was greater than 1 mg/mL. In data set [2], the highest concentration (Cmax) – broadly, the highest concentration seen after dosing – stood at 5.34 µg/mL and the half-life (usually the time in which the quantity being followed falls by half) was 2.8 h. The “maximal effect on glucose, change from baseline” value in data set [3] was -8 mmol/L. Besides, at human GLP-1 receptor, the EC50 – broadly, the concentration needed to bring the measured effect to its halfway point – came out at 4.3 pM. In data set [4] (pH 4.5), the “Stability (pH 4.5)” value is recorded as 96.0%. Further, the “Stability (pH 7.4)” value in data set [4] (pH 7.4) turned out to be 94.0%.
In data set [2], `CCCCCCCCCCCCCCCCCC(=O)N[C@@H](CCC(=O)N[C@@H](CCC(=O)NCCCC[C@H](NC(=O)[C@H](CCC(N)=O)NC(=O)[C@@H](NC(=O)[C@H](CO)NC(=O)[C@H](CC(C)C)NC(=O)[C@H](CC(=O)O)NC(=O)[C@H](CO)NC(=O)[C@@H](NC(=O)[C@H](Cc1ccccc1)NC(=O)[C@@H](NC(=O)CNC(=O)[C@H](CCC(=O)O)NC(=O)C(C)(C)NC(=O)[C@@H](N)Cc1ccc(O)cc1)[C@@H](C)O)[C@@H](C)O)[C@@H](C)CC)C(=O)N[C@@H](CCC(=O)O)C(=O)N[C@@H](CCCCN)C(=O)N[C@@H](CCCNC(=N)N)C(=O)N[C@@H](C)C(=O)N[C@@H](C)C(=O)NC(C)(C)C(=O)N[C@@H](CCC(=O)O)C(=O)N[C@@H](Cc1ccccc1)C(=O)N[C@H](C(=O)N[C@@H](CCC(=O)O)C(=O)N[C@@H](Cc1c[nH]c2ccccc12)C(=O)N[C@@H](CC(C)C)C(=O)N[C@@H](CCCCN)C(=O)N[C@@H](CC(N)=O)C(=O)N[C@H](C(=O)NCC(=O)N1CCC[C@H]1C(=O)N[C@@H](CO)C(=O)N[C@@H](CO)C(=O)NCC(=O)N[C@@H](C)C(=O)N1CCC[C@H]1C(=O)N1CCC[C@H]1C(=O)N1CCC[C@H]1C(=O)N[C@@H](CO)C(N)=O)[C@@H](C)O)[C@@H](C)CC)C(=O)O)C(=O)O` [SEQ ID NO: 16, Y-Aib-E-G-T-F-T-S-D-L-S-I-Q-K(γE-γE-x70)-E-K-R-A-A-Aib-E-F-I-E-W-L-K-N-T-G-P-S-S-G-A-P-P-P-S-NH2] (H-Y[Aib]EGTFTSDLSIQK([γGlu-γGlu-Stearoyl])EKRAA[Aib]EFIEWLKNTGPSSGAPPPS-NH2) showed a Cmax of 3.46 µg/mL and a half-life of 5.3 h. The concentration giving a half-maximal response (EC50) at human GLP-1 receptor is 4 pM. The oral glucose tolerance entry in data set [5] (once daily s.c., oral glucose 2 g/kg in the 4th week) is on record as “improved oral glucose tolerance”. Further, the “reduction of AUC under the glucose curve compared to vehicle control” value in data set [5] (oral glucose tolerance test, p<0.05) is “reached statistical significance”.
